Assay results from PubChem BioAssay (NCI).
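Dose response: 5 concentrations. Exposure: 48 h. Format: 96-well plates. Endpoint: linear interpolation; highest concentration if not reached. GI50 marks 50% less growth. At the TGI there is no net growth.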

Columns and labels:
Assay in all cases: NCI anticancer screen, dose series, 48 h
786-0 renal = system: 786-0 renal
A498 renal = system: A498 renal
A549 NSCLC = system: A549 NSCLC
ACHN renal = system: ACHN renal
BT-549 breast = system: BT-549 breast
CAKI-1 renal = system: CAKI-1 renal
CCRF-CEM leukemia = system: CCRF-CEM leukemia
COLO 205 colon = system: COLO 205 colon
DU-145 prostate = system: DU-145 prostate
EKVX NSCLC = system: EKVX NSCLC
HCC-2998 colon = system: HCC-2998 colon
HCT-116 colon = system: HCT-116 colon
HCT-15 colon = system: HCT-15 colon
HL-60(TB) leukemia = system: HL-60(TB) leukemia
HOP-62 NSCLC = system: HOP-62 NSCLC
HOP-92 NSCLC = system: HOP-92 NSCLC
HS 578T breast = system: HS 578T breast
HT29 colon = system: HT29 colon
IGROV1 ovarian = system: IGROV1 ovarian
K-562 leukemia = system: K-562 leukemia
KM12 colon = system: KM12 colon
LOX IMVI melanoma = system: LOX IMVI melanoma
M14 melanoma = system: M14 melanoma
MALME-3M melanoma = system: MALME-3M melanoma
MCF7 breast = system: MCF7 breast
MDA-MB-231 breast = system: MDA-MB-231 breast
MDA-MB-435 = system: MDA-MB-435
MOLT-4 leukemia = system: MOLT-4 leukemia
NCI-H226 lung = system: NCI-H226 lung
NCI-H23 lung = system: NCI-H23 lung
NCI-H460 lung = system: NCI-H460 lung
NCI-H522 lung = system: NCI-H522 lung
NCI/ADR-RES ovarian = system: NCI/ADR-RES ovarian
OVCAR-3 ovarian = system: OVCAR-3 ovarian
OVCAR-4 ovarian = system: OVCAR-4 ovarian
OVCAR-5 ovarian = system: OVCAR-5 ovarian
OVCAR-8 ovarian = system: OVCAR-8 ovarian
PC-3 prostate = system: PC-3 prostate
RPMI-8226 leukemia = system: RPMI-8226 leukemia
RXF 393 renal = system: RXF 393 renal
SF-268 CNS = system: SF-268 CNS
SF-295 CNS = system: SF-295 CNS
SF-539 CNS = system: SF-539 CNS
SK-MEL-2 melanoma = system: SK-MEL-2 melanoma
SK-MEL-28 melanoma = system: SK-MEL-28 melanoma
SK-MEL-5 melanoma = system: SK-MEL-5 melanoma
SK-OV-3 ovarian = system: SK-OV-3 ovarian
SN12C renal = system: SN12C renal
SNB-19 CNS = system: SNB-19 CNS
SNB-75 CNS = system: SNB-75 CNS
SR leukemia = system: SR leukemia
SW-620 colon = system: SW-620 colon
T-47D breast = system: T-47D breast
TK-10 renal = system: TK-10 renal
U251 CNS = system: U251 CNS
UACC-257 melanoma = system: UACC-257 melanoma
UACC-62 melanoma = system: UACC-62 melanoma
UO-31 renal = system: UO-31 renal
MDA-N = system: MDA-N

For COC(=O)[C@]12CC[C@@H](C)[C@H](C)[C@@H]1C1=CC[C@@H]3[C@@]4(C)C(C=O)=C[C@@](C)(COC(C)=O)C4=CC[C@@]3(C)[C@]1(C)CC2, the GI50 (786-0 renal) was 3.5 µM, the TGI (786-0 renal) was 15 µM and the GI50 (A498 renal) was 10.8 µM. It also gave a TGI (A498 renal) of 24 µM, a GI50 (A549 NSCLC) of 3.82 µM and a TGI (A549 NSCLC) of 16.2 µM. It also gave a GI50 (ACHN renal) of 3.12 µM, a TGI (ACHN renal) of 12.4 µM and a GI50 (BT-549 breast) of 6.9 µM. It also gave a TGI (BT-549 breast) of 25.9 µM, a GI50 (CAKI-1 renal) of 3.66 µM and a TGI (CAKI-1 renal) of 17 µM. The GI50 (CCRF-CEM leukemia) was 1.95 µM, the TGI (CCRF-CEM leukemia) was 7.82 µM and the GI50 (COLO 205 colon) was 2.34 µM. It also gave a TGI (COLO 205 colon) of 5.8 µM, a GI50 (DU-145 prostate) of 5.24 µM and a TGI (DU-145 prostate) of 19.4 µM. It also gave a GI50 (EKVX NSCLC) of 4.13 µM, a TGI (EKVX NSCLC) of 16.1 µM and a GI50 (HCC-2998 colon) of 3.32 µM. It also gave a TGI (HCC-2998 colon) of 12.4 µM, a GI50 (HCT-116 colon) of 2.47 µM and a TGI (HCT-116 colon) of 10.4 µM. For the same molecule, the GI50 (HCT-15 colon) was 3.38 µM, the TGI (HCT-15 colon) was 12.1 µM and the GI50 (HL-60(TB) leukemia) was 2.68 µM. It also gave a TGI (HL-60(TB) leukemia) of 6.49 µM, a GI50 (HOP-62 NSCLC) of 11.7 µM and a TGI (HOP-62 NSCLC) of 29.3 µM. The GI50 (HOP-92 NSCLC) was 2.63 µM, the TGI (HOP-92 NSCLC) was 16.3 µM and the GI50 (HS 578T breast) was 5.07 µM. For the same molecule, the TGI (HS 578T breast) was 30.3 µM, the GI50 (HT29 colon) was 3.17 µM and the TGI (HT29 colon) was 11 µM. For the same molecule, the GI50 (IGROV1 ovarian) was 5.51 µM, the TGI (IGROV1 ovarian) was 22.7 µM and the GI50 (K-562 leukemia) was 4.1 µM. It also gave a TGI (K-562 leukemia) of 15.3 µM, a GI50 (KM12 colon) of 3.49 µM and a TGI (KM12 colon) of 14.9 µM. The GI50 (LOX IMVI melanoma) was 3.3 µM, the TGI (LOX IMVI melanoma) was 12.7 µM and the GI50 (M14 melanoma) was 5.27 µM. For the same molecule, the TGI (M14 melanoma) was 22.4 µM, the GI50 (MALME-3M melanoma) was 3.74 µM and the TGI (MALME-3M melanoma) was 15.5 µM. The GI50 (MCF7 breast) was 2.99 µM, the TGI (MCF7 breast) was 12.5 µM and the GI50 (MDA-MB-231 breast) was 5.74 µM. It also gave a TGI (MDA-MB-231 breast) of 23.5 µM, a GI50 (MDA-MB-435) of 4.28 µM and a TGI (MDA-MB-435) of 16.4 µM. The GI50 (MOLT-4 leukemia) was 1.82 µM, the TGI (MOLT-4 leukemia) was 6.12 µM and the GI50 (NCI-H226 lung) was 6.28 µM. It also gave a TGI (NCI-H226 lung) of 22.8 µM, a GI50 (NCI-H23 lung) of 4.53 µM and a TGI (NCI-H23 lung) of 19.3 µM. For the same molecule, the GI50 (NCI-H460 lung) was 3.98 µM, the TGI (NCI-H460 lung) was 15.2 µM and the GI50 (NCI-H522 lung) was 7.97 µM. The TGI (NCI-H522 lung) was 20.5 µM, the GI50 (NCI/ADR-RES ovarian) was 5.35 µM and the TGI (NCI/ADR-RES ovarian) was 18.9 µM. For the same molecule, the GI50 (OVCAR-3 ovarian) was 3.54 µM, the TGI (OVCAR-3 ovarian) was 12.2 µM and the GI50 (OVCAR-4 ovarian) was 4.06 µM. For the same molecule, the TGI (OVCAR-4 ovarian) was 18.3 µM, the GI50 (OVCAR-5 ovarian) was 5.75 µM and the TGI (OVCAR-5 ovarian) was 21.7 µM. For the same molecule, the GI50 (OVCAR-8 ovarian) was 4.46 µM, the TGI (OVCAR-8 ovarian) was 18.9 µM and the GI50 (PC-3 prostate) was 3.07 µM. The TGI (PC-3 prostate) was 13.9 µM, the GI50 (RPMI-8226 leukemia) was 2 µM and the TGI (RPMI-8226 leukemia) was 5.7 µM. The GI50 (RXF 393 renal) was 3.55 µM, the TGI (RXF 393 renal) was 14.1 µM and the GI50 (SF-268 CNS) was 4.38 µM. For the same molecule, the TGI (SF-268 CNS) was 17 µM, the GI50 (SF-295 CNS) was 2.98 µM and the TGI (SF-295 CNS) was 11.9 µM. It also gave a GI50 (SF-539 CNS) of 10.5 µM, a TGI (SF-539 CNS) of 26 µM and a GI50 (SK-MEL-2 melanoma) of 4.71 µM. The TGI (SK-MEL-2 melanoma) was 16.1 µM, the GI50 (SK-MEL-28 melanoma) was 3.22 µM and the TGI (SK-MEL-28 melanoma) was 12.3 µM. It also gave a GI50 (SK-MEL-5 melanoma) of 10.5 µM, a TGI (SK-MEL-5 melanoma) of 22.6 µM and a GI50 (SK-OV-3 ovarian) of 18 µM. It also gave a TGI (SK-OV-3 ovarian) of 50.4 µM, a GI50 (SN12C renal) of 6.12 µM and a TGI (SN12C renal) of 28.1 µM. For the same molecule, the GI50 (SNB-19 CNS) was 5.25 µM, the TGI (SNB-19 CNS) was 25.6 µM and the GI50 (SNB-75 CNS) was 2.91 µM. For the same molecule, the TGI (SNB-75 CNS) was 19.2 µM, the GI50 (SR leukemia) was 2.22 µM and the TGI (SR leukemia) was 7.83 µM. It also gave a GI50 (SW-620 colon) of 4.15 µM, a TGI (SW-620 colon) of 16.2 µM and a GI50 (T-47D breast) of 3.79 µM. It also gave a TGI (T-47D breast) of 27.3 µM, a GI50 (TK-10 renal) of 9.31 µM and a TGI (TK-10 renal) of 21.6 µM. The GI50 (U251 CNS) was 3.37 µM, the TGI (U251 CNS) was 13.9 µM and the GI50 (UACC-257 melanoma) was 4.19 µM. The TGI (UACC-257 melanoma) was 17.2 µM, the GI50 (UACC-62 melanoma) was 4.11 µM and the TGI (UACC-62 melanoma) was 18.1 µM. The GI50 (UO-31 renal) was 3.61 µM and the TGI (UO-31 renal) was 16 µM.

Work on COc1ccc(C(CC(=O)C(C)(C)CN2CCCCC2)SCCS(=O)(=O)O)cc1 (stereo unspecified) yielded a TGI (786-0 renal) of 60.7 µM, a TGI (A498 renal) of 74.3 µM and a TGI (A549 NSCLC) greater than 100 µM. For the same molecule, the TGI (ACHN renal) was greater than 100 µM, the TGI (BT-549 breast) was greater than 100 µM and the TGI (CAKI-1 renal) was greater than 100 µM. It also gave a TGI (CCRF-CEM leukemia) of 55.1 µM, a TGI (COLO 205 colon) greater than 100 µM and a TGI (DU-145 prostate) greater than 100 µM. The TGI (EKVX NSCLC) was greater than 100 µM, the TGI (HCC-2998 colon) was greater than 100 µM and the TGI (HCT-116 colon) was greater than 100 µM. The TGI (HCT-15 colon) was greater than 100 µM, the TGI (HL-60(TB) leukemia) was 67 µM and the TGI (HOP-62 NSCLC) was greater than 100 µM. The TGI (HOP-92 NSCLC) was 47.2 µM, the TGI (HS 578T breast) was greater than 100 µM and the TGI (HT29 colon) was 83.2 µM. It also gave a TGI (IGROV1 ovarian) greater than 100 µM, a TGI (K-562 leukemia) greater than 100 µM and a TGI (KM12 colon) greater than 100 µM. For the same molecule, the TGI (M14 melanoma) was 57.2 µM, the TGI (MALME-3M melanoma) was 84.8 µM and the TGI (MCF7 breast) was greater than 100 µM. It also gave a TGI (MDA-MB-231 breast) of 75.1 µM, a TGI (MDA-MB-435) of 52.3 µM and a TGI (MDA-N) of 96.2 µM. The TGI (MOLT-4 leukemia) was 57 µM, the TGI (NCI-H226 lung) was greater than 100 µM and the TGI (NCI-H23 lung) was 98.7 µM. It also gave a TGI (NCI-H460 lung) greater than 100 µM, a TGI (NCI-H522 lung) of 43.4 µM and a TGI (NCI/ADR-RES ovarian) greater than 100 µM. For the same molecule, the TGI (OVCAR-3 ovarian) was 38.3 µM, the TGI (OVCAR-4 ovarian) was greater than 100 µM and the TGI (OVCAR-5 ovarian) was greater than 100 µM. The TGI (OVCAR-8 ovarian) was greater than 100 µM, the TGI (PC-3 prostate) was greater than 100 µM and the TGI (RPMI-8226 leukemia) was 63.9 µM. For the same molecule, the TGI (RXF 393 renal) was greater than 100 µM, the TGI (SF-295 CNS) was greater than 100 µM and the TGI (SF-539 CNS) was 38.8 µM. The TGI (SK-MEL-2 melanoma) was greater than 100 µM, the TGI (SK-MEL-5 melanoma) was 62.5 µM and the TGI (SK-OV-3 ovarian) was greater than 100 µM. For the same molecule, the TGI (SN12C renal) was greater than 100 µM, the TGI (SNB-19 CNS) was greater than 100 µM and the TGI (SNB-75 CNS) was 91.9 µM. For the same molecule, the TGI (SR leukemia) was 49.7 µM, the TGI (SW-620 colon) was greater than 100 µM and the TGI (TK-10 renal) was greater than 100 µM. It also gave a TGI (U251 CNS) greater than 100 µM, a TGI (UACC-257 melanoma) greater than 100 µM and a TGI (UACC-62 melanoma) greater than 100 µM. The TGI (UO-31 renal) was greater than 100 µM.
